According to patent publication US8318736B2, “HIV inhibiting 5,6-substituted pyrimidines” (Janssen R&D Ireland, priority 2006, dated 2012):

How the values were obtained:
HIV strain L100I + K103N = assay: microbe, parasite or virus in culture; type: cell-based, HIV-1; conditions: Human immunodeficiency virus 1, 72 h, read-out: L100I + K103N pEC50 (-log EC50) (converted)
Source text: (§1) Image analysis allowed very sensitive detection of viral infection.

HIV strain K103N + Y181C [1] = tested on: HIV strain K103N + Y181C (second column with this head); assay: microbe, parasite or virus in culture; type: cell-based, HIV-1; conditions: Human immunodeficiency virus 1, 72 h, read-out: K103N + Y181C pEC50 (-log EC50) (converted)
Method: (§2) The ratio of CC50 to EC50 is defined as the selectivity index (SI) and is an indication of the selectivity of the anti-HIV activity of the inhibitor. The ultimate monitoring of HIV-1 infection and cytotoxicity was done using a scanning microscope. Image analysis allowed very sensitive detection of viral infection. Measurements were done before cell necrosis, which usually takes place about five days after infection, in particular measurements were performed three days after infection.

[2] = tested on: HIV strain MDR (L100I, K103N, Y181C, E138G, V1791, L2214F, V278V/I and A327A/V in HIV reverse transcriptase); assay: microbe, parasite or virus in culture; type: cell-based, HIV-1; conditions: Human immunodeficiency virus 1, read-out: MDR pEC50 (-log EC50) (converted)
Source text: as §1
“MDR” refers to a strain that contains mutations L100I, K103N, Y181C, E138G, V1791, L2214F, V278V/I and A327A/V in HIV reverse transcriptase.

[3] = tested on: HIV strain IIIB (wild type); assay: microbe, parasite or virus in culture; conditions: for EC50: Human immunodeficiency virus 1, IIIB, 72 h, read-out: IIIB pEC50 (-log EC50) (converted); for pSI (IIIB) (-log SI; SI = ratio of CC50 to EC50): strain IIIB, CC50 in mock-infected MT4 CMV-EGFP cells
Method: Compounds of the invention were tested for their potency against wild type virus and clinically isolated HIV strains harboring one or more mutations associated with resistance to reverse transcriptase inhibitors. Antiviral activity was evaluated using a cellular assay performed according to the following procedure.
The human T-cell line MT4 was engineered with Green Fluorescent Protein (GFP) and a HIV-specific promoter, HIV-1 long terminal repeat (LTR). This cell line, designated MT4 LTR-EGFP, can be used for the in vitro evaluation of anti-HIV activity of investigational compounds. In HIV-1 infected cells, the Tat protein is produced, which upregulates the LTR promotor and eventually leads to stimulation of the GFP reporter production, allowing to measure ongoing HIV-infection fluorometrically.
Analogously, MT4 cells were engineered with GFP and the constitutional cytomegalovirus (CMV) promotor. This cell line was designated MT4 CMV-EGFP, and can be used for the in vitro evaluation of cytotoxicity of investigational compounds. […] Cytotoxic investigational compounds reduce GFP levels of mock-infected MT4 CMV-EGFP cells.
The ratio of CC50 to EC50 is defined as the selectivity index (SI) and is an indication of the selectivity of the anti-HIV activity of the inhibitor. The ultimate monitoring of HIV-1 infection and cytotoxicity was done using a scanning microscope. […] Measurements were done before cell necrosis, which usually takes place about five days after infection, in particular measurements were performed three days after infection.
The columns IIIB, L100I, etc. in the table list the pEC50 (−log EC50) values against various strains IIIB, L100I, etc.; pSI lists the −log SI values.
Strain IIIB is wild type HIV strain.

HIV strain K103N + Y181C [4] = assay: microbe, parasite or virus in culture; type: cell-based, HIV-1; conditions: Human immunodeficiency virus 1, 72 h, read-out: K103N + Y181C pEC50 (-log EC50) (converted)
Method: as §2

Structure (SMILES)	EC50 (HIV strain L100I + K103N) [nM]	EC50 (HIV strain K103N + Y181C [1]) [nM]	EC50 [2] [nM]	EC50 [3] [nM]	pSI (IIIB) (-log SI; SI = ratio of CC50 to EC50) [3]	EC50 (HIV strain K103N + Y181C [4]) [nM]	melting point [°C]
COCc1nc(Nc2ccc(C#N)cc2)nc(Nc2c(C)cc(/C=C/C#N)cc2C)c1C(C)O (stereo not shown) [Compound 37]	2.45	11.5	105	1.45	3.95	6.03	–
COCc1nc(Nc2ccc(C#N)cc2)nc(Nc2c(C)cc(/C=C/C#N)cc2C)c1-c1ccoc1 [Compound 7]	2.4	12.6	91.2	3.72	3.75	12.3	122
COCc1nc(Nc2ccc(C#N)cc2)nc(Nc2c(C)cc(/C=C/C#N)cc2C)c1-c1cccs1 [Compound 4]	3.8	18.6	138	4.57	3.73	15.5	130
COCc1nc(Nc2ccc(C#N)cc2)nc(Nc2c(C)cc(/C=C/C#N)cc2C)c1-c1cnccc1OC [Compound 1]	63.1	83.2	2400	12.9	>3.28	93.3	120
COCc1nc(Nc2ccc(C#N)cc2)nc(Nc2c(C)cc(/C=C/C#N)cc2C)c1-c1ccsc1 [Compound 5]	5.01	25.1	324	4.37	>3.76	21.4	125
COCc1nc(Nc2ccc(C#N)cc2)nc(Nc2c(C)cc(/C=C/C#N)cc2C)c1-c1ccncc1 [Compound 3]	9.33	22.4	355	3.31	>3.88	29.5	172
C=CC(O)c1c(COC)nc(Nc2ccc(C#N)cc2)nc1Nc1c(C)cc(/C=C/C#N)cc1C (stereo not shown) [Compound 36]	3.47	12.6	66.1	2.63	3.85	8.71	–
COCc1nc(Nc2ccc(C#N)cc2)nc(Nc2c(C)cc(/C=C/C#N)cc2C)c1-c1ccco1 [Compound 6]	3.63	17.4	89.1	3.63	3.61	16.6	105
COCc1nc(Nc2ccc(C#N)cc2)nc(Nc2c(C)cc(/C=C/C#N)cc2C)c1-c1cccnc1 [Compound 2]	4.17	15.8	240	3.02	3.65	21.4	216
COCc1nc(Nc2ccc(C#N)cc2)nc(Nc2c(C)cc(/C=C/C#N)cc2C)c1C(O)c1nccs1 (stereo not shown) [Compound 38]	3.72	12	174	2.69	3.81	12.3	–
